Test results: patent publication US20250123268A1, “COMPOSITIONS AND METHODS FOR ACCELERATING DEVELOPMENT OF CANCER THERAPEUTICS” (NetNoids Rx Laboratories, LLC, priority 2023, published 2025)
“Also recorded” adds a separate entry of the source.

What was measured:
[1] = tested on: TNBC-1; assay: COMPASS C1/C3a/C3c drug regimen testing, TNBC-1 tumor volume; format: cell-based, human; settings: for tumor volume (efficacy): 50 nM & 500 nM
Description: Methods: COMPASS Platforms for TIME Modeling for Drug Regimen Testing: I.A. C1/C3a/C3c for TNBC-1 against 1) Doxorubicin 50 nM & 500 nM (Control: DMSO 0.01%), 2) Sacituzumab 5 nM & 20 nM [Control: PBS 0.01%] via continuous treatment w/initial administration at post-seeding Day 1; I.B. C2/C3b/C3d for GBC-1 against 1) Gemcitabine+Cisplatin 1 μM & 10 μM (G+C 7:1 ratio) (Control: DMSO 0.03%) 2) Gemcitabine+Cisplatin 1 μM+Durvalumab 0.1 nM; Gemcitabine+Cisplatin 10 μM+Durvalumab 1 nM (Control: DMSO 0.03%) (G+C 7:1 ratio) via continuous treatment w/initial administration at post-seeding Day 3; II. C1/C3b/C3d for HUAS-1 against 1) HSP90i 50 nM & 100 nM, (Control: DMSO 0.01-0.5%), 2) HSP90i 50 nM+Doxorubicin 50 nM & HSP90i 100 nM+Doxorubicin 50 nM, (Control: DMSO 0.01-0.5%) via continuous treatment w/initial administration at post-seeding Day 3; • Experimental Set-Up: Series (C1/C2) & representative parallel experimentation (C3), n=3 per group; • Evaluation: Imaging—Phase Contrast Imaging via Biotek Cytation 5 (Agilent) with partial well plug for object selection ([…] for C1/C2 & […] for C3) towards tumor volume analysis at Timepoints Day 3 and Day 7/10; • Statistics: One-way ANOVA followed by Tukey's pairwise comparison, n=3, (p<0.05).
FIGS. 28A-L: Common Cancers (TNBC and GBC) vs Established Drug Regimens (Doxorubicin/Sacituzumab and Gemcitabine+Cisplatin+/−Durvalumab, respectively) treatment profiles across progressing, appropriately-matched COMPASS Platforms at Day 3 and Day 10 Timepoints. Compass 1 is used for small molecules. Compass 2 is used in studies when Durvalumab (which is an anti-PDL 1 inhibitor) is added and it works by using the immune system (checkpoint inhibitor), which makes the immune system […]. Sub-studies highlighting the versatility of COMPASS platforms in the generation of specific Tumor-Immune-Microenvironment Models—designed appropriately for intended drug mechanism testing of already clinically-approved treatment regimens. […]

[2] = tested on: PDL-1 positive PDT of TNBC; assay: PDL-1 positive TNBC PDT tumor volume, anti-PD1 treatment, with/without PBMCs (COMPASS 2); format: cell-based, human; settings: same model without the addition of PBMCs
Description: All experiments were conducted with n=3 replicates and data was analyzed by One Way ANOVA followed by student's t-test to check for statistical significance.

`COc1cccc2c1C(=O)c1c(O)c3c(c(O)c1C2=O)C[C@@](O)(C(=O)CO)C[C@@H]3O[C@H]1C[C@H](N)[C@H](O)[C@H](C)O1` [Doxorubicin] was tested, and the “tumor volume (efficacy)” value ([1]; C1 model) was “slight efficacy” and the “tumor volume (efficacy)” value ([1]; C3 models) was “potential resistance”.
Pembrolizumab [anti-PD1 inhibitor] was tested, and the “immune checkpoint mediated reduction in tumor volume” value [2] was “not observed”.
In the case of Sacituzumab, the “tumor volume vs control” value ([1]; 5 nM & 20 nM, supplemental structural matrix & oxygenation (C3c), p=0.04) is reported as “revealed efficacy in oxygenated conditions; also recorded: tumor volume reduction vs control”.
